One data set has as its target T1, hERG channels (Homo sapiens, UniProt Q12809).
T1 construct: host or cells: CHO-hERG cells
Kind of data set: hERG assay, whole-cell patch-clamp in CHO-hERG cells. In kind it is cell-based. The settings on record: for IC50: whole-cell patch-clamp, CHO-hERG cells. On the procedure: CHO-hERG cells (Sophion Biosciences (Ballerup, Denmark), subcultured and frozen in WuXi AppTec (Suzhou) Co., Ltd.), stored in liquid nitrogen, were tested and determined to be free from mycoplasma contamination. Cells were not used after the 30th passage. CHO-hERG cells were cultured in a humidified incubator of 5% CO2 (4% to 8%) in air at 37° C. (±2° C.). The cells were recovered with recovery medium (F12 medium with 10% fetal bovine serum), subcultured in complete medium (F12 medium, supplemented with 10% fetal bovine serum, 1% Geneticin® selective antibiotic (G418), 89 μg/mL Hygromycin B (HB)), and the culture medium was switched to recovery medium in the last subculture before patch-clamp experiment.
To determine the compounds' IC50, select compounds (“test articles”) were dissolved into DMSO, and then diluted with ECS to get working solutions. Five concentrations of 0.3, 1, 3, 10, and 30 μM were tested. Two replicate cells for each concentration were tested.
Exponentially growing CHO-hERG cells were collected and suspended in extracellular solution for use. The hERG current was recorded at physiological temperature (33.0° C. to 37.0° C.) using whole-cell patch-clamp techniques. Output signals from the patch-clamp amplifier were digitized and low-pass filtered at 2.9 KHz. The recording was controlled with Patchmaster Pro software. The recording chamber with seeded cells was mounted on an inverted microscope stage. A cell in the recording chamber was randomly selected for testing. The cell was continuously perfused from the perfusion system. A micropipette filled with ICS was used as recording electrode in the manual patch-clamp study. The micropipette was prepared on the day of the patch-clamp experiment using glass capillaries (BF150-117-10, SUTTER INSTRUMENT USA). The pipette resistance (Rp) was within 2 to 5 MΩ with ICS filled. From the holding potential of-80 mV, the voltage was increased to +60 mV for 850 ms to open the hERG channels. After that, the voltage was decreased to-50 mV for 1275 ms, causing a “rebound” or tail current, the peak tail current was measured and collected for data analysis. Finally, the voltage was decreased to the holding potential (−80 mV). This command voltage protocol was repeated every 15 s continuously during the test article application.
During the initial recording period with vehicle control working solution, the peak tail current amplitude was monitored until it had been stable for at least 3 sweeps. Cells were then perfused with test article/positive control working solutions until the peak tail current amplitude reached steady state. Steady state was considered reached when three consecutive super-imposable peak tail currents were collected. At this point, cells were once again perfused with next concentration of test article. One or more test articles/positive control or different concentrations of the same test article were tested on each cell with vehicle control washout until the current amplitude returned to values at least 80% of those measured before application of test article. […] At least 2 replicate cells for each concentration were tested. […] (Milnes, J. T., et al.)
Seal criteria: When acquiring whole-cell configuration, a holding potential (e.g.,-80 mV) was applied while membrane parameters were collected (Cm, Rm and Rs). A “good” whole-cell recording was generally defined as: series resistance (Rs) was less than 10 MΩ; membrane resistance (Rm) was more than 500 MΩ and membrane capacitance (Cm) was less than 100 pF. Current amplitude: The peak current amplitude must be between 400 pA and 5000 pA before the test article/positive control application; otherwise the cell was discarded. Leak criteria: At-80 mV holding potential, the absolute leak current value must be less than 200 pA. The amplitude of current was adjusted with leak current at-80 mV. The sweeps which absolute leak current value was more than 200 pA was not used in data analysis.
For orientation: hERG is a cardiac potassium channel; its block is linked to QT prolongation.

Another data set has as its system IL-6. As to the kind of experiment: IL-6 AlphaLISA in LPS-primed THP1 macrophages. The settings on record: for IC50: Homo sapiens. (In general: Bead proximity is the source of the signal in Alpha formats.)
Another data set has as its target NLRP3 inflammasome (Homo sapiens, UniProt Q96P20). As to the kind of experiment: NLRP3 inflammasome activation in THP1 macrophages, IL-1β AlphaLISA. The settings on record: for IC50: THP1 macrophages.

Like-named read-outs stand apart in the source and are kept apart here.

Chain of NLRP3 inflammasome (Q96P20 whole entry): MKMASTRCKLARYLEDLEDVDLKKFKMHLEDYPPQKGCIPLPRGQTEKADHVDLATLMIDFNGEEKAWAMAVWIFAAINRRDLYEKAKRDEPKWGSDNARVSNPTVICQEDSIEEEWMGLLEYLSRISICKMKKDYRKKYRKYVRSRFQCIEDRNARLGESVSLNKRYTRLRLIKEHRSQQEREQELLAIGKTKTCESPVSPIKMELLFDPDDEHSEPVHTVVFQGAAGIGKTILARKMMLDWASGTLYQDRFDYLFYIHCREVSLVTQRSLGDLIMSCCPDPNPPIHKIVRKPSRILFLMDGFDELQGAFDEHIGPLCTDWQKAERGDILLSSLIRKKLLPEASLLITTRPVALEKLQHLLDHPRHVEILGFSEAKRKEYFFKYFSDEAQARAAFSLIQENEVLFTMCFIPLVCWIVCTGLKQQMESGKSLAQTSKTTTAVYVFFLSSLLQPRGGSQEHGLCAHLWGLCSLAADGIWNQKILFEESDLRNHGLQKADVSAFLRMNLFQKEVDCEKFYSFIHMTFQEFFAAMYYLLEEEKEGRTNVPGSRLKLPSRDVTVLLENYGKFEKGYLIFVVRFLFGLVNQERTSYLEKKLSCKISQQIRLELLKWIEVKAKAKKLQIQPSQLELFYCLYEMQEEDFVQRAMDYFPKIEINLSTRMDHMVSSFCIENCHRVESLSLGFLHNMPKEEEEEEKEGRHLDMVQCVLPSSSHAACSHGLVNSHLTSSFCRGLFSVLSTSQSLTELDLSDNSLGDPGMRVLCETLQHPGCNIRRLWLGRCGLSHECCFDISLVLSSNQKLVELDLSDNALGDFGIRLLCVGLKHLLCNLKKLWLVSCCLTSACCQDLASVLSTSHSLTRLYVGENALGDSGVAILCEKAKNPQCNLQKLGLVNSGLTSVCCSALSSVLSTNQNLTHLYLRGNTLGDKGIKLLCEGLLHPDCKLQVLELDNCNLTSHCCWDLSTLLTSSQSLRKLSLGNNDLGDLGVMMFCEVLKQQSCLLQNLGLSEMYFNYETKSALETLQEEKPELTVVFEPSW
T1 sequence (Q12809 whole entry): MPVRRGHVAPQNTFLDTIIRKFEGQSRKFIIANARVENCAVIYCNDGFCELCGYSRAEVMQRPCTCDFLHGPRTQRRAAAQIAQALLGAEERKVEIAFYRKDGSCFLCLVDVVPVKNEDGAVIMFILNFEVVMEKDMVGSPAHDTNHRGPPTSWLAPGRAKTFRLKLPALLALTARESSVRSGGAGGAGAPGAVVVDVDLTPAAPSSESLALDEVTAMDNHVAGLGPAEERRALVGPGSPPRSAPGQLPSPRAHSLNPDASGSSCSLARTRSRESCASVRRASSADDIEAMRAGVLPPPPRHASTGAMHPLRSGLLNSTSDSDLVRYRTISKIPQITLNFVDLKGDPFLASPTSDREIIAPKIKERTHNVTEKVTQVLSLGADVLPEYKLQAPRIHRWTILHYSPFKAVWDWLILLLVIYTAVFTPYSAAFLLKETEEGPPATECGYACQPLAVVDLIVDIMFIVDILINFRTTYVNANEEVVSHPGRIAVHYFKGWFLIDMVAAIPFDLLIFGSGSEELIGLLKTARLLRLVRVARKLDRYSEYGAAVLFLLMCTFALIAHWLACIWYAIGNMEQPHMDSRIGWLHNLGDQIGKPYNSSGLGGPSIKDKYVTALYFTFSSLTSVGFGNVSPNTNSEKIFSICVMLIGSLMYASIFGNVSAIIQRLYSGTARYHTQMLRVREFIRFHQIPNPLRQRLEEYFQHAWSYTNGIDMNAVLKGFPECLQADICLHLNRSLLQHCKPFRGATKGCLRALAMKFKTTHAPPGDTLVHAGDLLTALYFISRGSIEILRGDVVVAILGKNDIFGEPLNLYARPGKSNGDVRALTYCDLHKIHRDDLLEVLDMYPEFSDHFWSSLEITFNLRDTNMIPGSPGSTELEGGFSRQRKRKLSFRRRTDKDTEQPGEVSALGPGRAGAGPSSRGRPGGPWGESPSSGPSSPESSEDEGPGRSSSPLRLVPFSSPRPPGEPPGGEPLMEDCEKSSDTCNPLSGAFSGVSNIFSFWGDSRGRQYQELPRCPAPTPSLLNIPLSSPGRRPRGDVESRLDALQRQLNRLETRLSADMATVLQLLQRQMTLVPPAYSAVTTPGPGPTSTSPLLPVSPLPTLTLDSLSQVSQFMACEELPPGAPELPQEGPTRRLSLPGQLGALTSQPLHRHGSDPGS

For `Cc1cc(F)cc(O)c1-c1ccc(N(C)[C@@H]2CCCN(C)C2)nn1` [compound 22], on hERG channels, the “hERG inhibition (in words)” value is given as “unexpectedly low”. The IC50 is above 30 µM at hERG channels (33.0-37.0 °C, Table 10); above 30 µM on hERG channels (Table 11 comparison); above 10 µM in the data set on IL-6 (THP-1, read-out: IL-6 Activity (μM), THP1 macrophages, PMA, LPS priming, nigericin 6.7 uM); above 10 µM with IL-6 (THP-1, read-out: IL-6 Activity, LPS-primed THP1 macrophages, Table 11 comparison); 10 to 100 nM against NLRP3 inflammasome (IL-1β Activity (nM), PMA, LPS priming, nigericin 6.7 uM activation); 10 to 100 nM at NLRP3 inflammasome (IL-1β Activity, Table 11 comparison). In addition, the “IL-6 activity (in words)” value in the data set on IL-6 was “potent”. Also, the “IL-1ß activity (in words)” value at NLRP3 inflammasome is reported as “potent”.

Source of the values: patent US20250304560A1, “MODULATORS OF NLRP3 INFLAMMASOME AND RELATED PRODUCTS AND METHODS” (Neumora Therapeutics, Inc., priority 2022, published 2025).
